Test in all cases: relative viability (nuclei count vs DMSO), 5 days (fraction); higher = more cells survive
Assay [1] concerns NCI-H1703. The essentials:
(§1)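 Dosing by pin tool came one day after lung cancer cell lines were seeded in 1536-well plates, using either one drug or a fixed anchor-drug dose plus five library-drug doses (not always all listed) in √10 steps. After 5 days, nuclei were counted on 4× images. Relative viability is treated-well nuclei count divided by vehicle-well nuclei count, and values are medians of duplicate plates.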

Assay [2] deals with NCI-H1648. The essentials:
as §1

Assay [3] relates to EBC-1. The essentials:
as §1

For assay [4], the system named is A549. A digest of the protocol:
as §1

The test system of assay [5] is NCI-H1299. A digest of the protocol:
as §1

Assay [6] deals with IA-LM. A digest of the protocol:
as §1

In assay [7] the test system is Calu-6. The essentials:
as §1

Assay [8] relates to CAL-12T. A digest of the protocol: as §1
Assay [9] deals with NCI-H1623. A digest of the protocol:
as §1

Consider `C[C@@H]1CN(CC(=O)Nc2ccc3c(c2)Cc2cccc(-c4cc(=O)cc(N5CCOCC5)o4)c2S3)C[C@H](C)O1` + O=C(c1cc(Cc2n[nH]c(=O)c3ccccc23)ccc1F)N1CCN(C(=O)C2CC2)CC1 [Olaparib] (partner 8 µM), for which the relative viability came out at 0.489 in [1] (first compound 0.04 µM); 0.407 in assay [1] (first compound 0.1265 µM); 0.295 in [1] (first compound 0.4 µM); 0.208 in assay [1] (first compound 4 µM); 0.56 in assay [2] (first compound 0.04 µM); 1.08 in [2] (first compound 0.1265 µM). Also, the relative viability in assay [2] (first compound 0.4 µM) was determined as 0.879; in assay [2] (first compound 4 µM) it was 0.56; in assay [3] (first compound 0.04 µM), 0.736; in assay [3] (first compound 0.1265 µM), 0.723; in assay [3] (first compound 0.4 µM) it was 0.494; in assay [3] (first compound 4 µM), 0.147. In addition, the relative viability in assay [4] (first compound 0.04 µM) stood at 0.239; in [4] (first compound 0.1265 µM) it was 0.334; in [4] (first compound 0.4 µM), 0.332; in assay [4] (first compound 4 µM), 0.0917; in assay [5] (first compound 0.04 µM), 1.08; in assay [5] (first compound 0.1265 µM), 1. The relative viability stood at 1.05 in [5] (first compound 0.4 µM); 0.488 in assay [5] (first compound 4 µM); 0.844 in [6] (first compound 0.04 µM); 0.976 in assay [6] (first compound 0.1265 µM); 0.792 in [6] (first compound 0.4 µM); 0.207 in assay [6] (first compound 4 µM). Further, the relative viability in assay [7] (first compound 0.04 µM) came to 0.646; in assay [7] (first compound 0.1265 µM), 0.573; in assay [7] (first compound 0.4 µM), 0.672; in assay [7] (first compound 4 µM), 0.299; in assay [8] (first compound 0.04 µM) it was 0.81; in assay [8] (first compound 0.1265 µM), 0.739. The relative viability in assay [8] (first compound 0.4 µM) is 0.656; in assay [8] (first compound 4 µM), 0.168.

Take `C[C@@H]1CN(CC(=O)Nc2ccc3c(c2)Cc2cccc(-c4cc(=O)cc(N5CCOCC5)o4)c2S3)C[C@H](C)O1` + CCNC(=O)c1noc(-c2cc(C(C)C)c(O)cc2O)c1-c1ccc(CN2CCOCC2)cc1 [Luminespib] (partner 0.01 µM): the relative viability amounted to 0.439 in assay [9] (first compound 0.04 µM); 0.473 in assay [9] (first compound 0.1265 µM); 0.442 in assay [9] (first compound 0.4 µM); 0.561 in [9] (first compound 4 µM); 0.302 in [8] (first compound 0.04 µM); 0.408 in [8] (first compound 0.1265 µM). The relative viability in assay [8] (first compound 0.4 µM) came out at 0.613; in [8] (first compound 4 µM), 0.168.

On to `COc1cc(N2CCC(C(N)=O)CC2)ccc1Nc1nc(N)c(Cl)c(Nc2ccccc2S(=O)(=O)C(C)C)n1` [HG-5-88-01] + O=C(c1cc(Cc2n[nH]c(=O)c3ccccc23)ccc1F)N1CCN(C(=O)C2CC2)CC1 [Olaparib] (partner 8 µM), for which the relative viability in assay [1] (first compound 0.04 µM) came to 0.341; in assay [1] (first compound 0.1265 µM), 0.386; in assay [1] (first compound 1.265 µM), 0.305; in [1] (first compound 4 µM) it was 0.309; in [2] (first compound 0.04 µM) it was 1.13; in [2] (first compound 0.1265 µM) it was 0.63. Further, the relative viability turned out to be 0.457 in assay [2] (first compound 0.4 µM); 0.773 in [2] (first compound 1.265 µM); 0.462 in [2] (first compound 4 µM); 0.712 in [3] (first compound 0.04 µM); 0.77 in [3] (first compound 0.1265 µM); 0.733 in assay [3] (first compound 0.4 µM). The relative viability worked out at 0.668 in assay [3] (first compound 1.265 µM); 0.489 in assay [3] (first compound 4 µM); 0.357 in assay [4] (first compound 0.04 µM); 0.419 in assay [4] (first compound 0.1265 µM); 0.352 in [4] (first compound 0.4 µM); 0.273 in [4] (first compound 1.265 µM). Moreover, the relative viability in assay [4] (first compound 4 µM) was 0.25; in assay [5] (first compound 0.04 µM), 0.956; in assay [5] (first compound 0.1265 µM) it was 0.972; in [5] (first compound 0.4 µM) it was 0.986; in [5] (first compound 1.265 µM), 0.951; in assay [5] (first compound 4 µM), 0.87. The relative viability was 0.79 in assay [6] (first compound 0.04 µM); 0.839 in assay [6] (first compound 0.1265 µM); 0.87 in assay [6] (first compound 0.4 µM); 0.699 in assay [6] (first compound 1.265 µM); 0.649 in assay [6] (first compound 4 µM); 0.599 in assay [7] (first compound 0.04 µM). For the same compound, the relative viability turned out to be 0.579 in assay [7] (first compound 0.1265 µM); 0.579 in assay [7] (first compound 0.4 µM); 0.537 in assay [7] (first compound 1.265 µM); 0.46 in assay [7] (first compound 4 µM); 0.733 in assay [8] (first compound 0.04 µM); 0.779 in assay [8] (first compound 0.1265 µM). Further, the relative viability in [8] (first compound 0.4 µM) came to 0.787; in assay [8] (first compound 1.265 µM), 0.667; in [8] (first compound 4 µM), 0.319.

On to `Clc1ccc(Nc2nnc(Cc3ccncc3)c3ccccc23)cc1` [Vatalanib] + CCNC(=O)c1noc(-c2cc(C(C)C)c(O)cc2O)c1-c1ccc(CN2CCOCC2)cc1 [Luminespib] (partner 0.01 µM), for which the relative viability worked out at 0.428 in assay [9] (first compound 0.04 µM); 0.616 in assay [9] (first compound 0.1265 µM); 0.579 in assay [9] (first compound 0.4 µM); 0.471 in assay [9] (first compound 1.265 µM); 0.478 in assay [9] (first compound 4 µM); 0.722 in assay [8] (first compound 0.04 µM). In addition, the relative viability in [8] (first compound 0.1265 µM) was determined as 0.406; in assay [8] (first compound 0.4 µM), 0.502; in assay [8] (first compound 1.265 µM) it was 0.255; in assay [8] (first compound 4 µM), 0.513.

The values are drawn from the supplement of paper PMC10307832.
